Experimental findings from patent US20190021380A1 (priority 2014, published 2019) are described below.

Assay [1] addresses T1, T1R1/T1R3 receptor (Felis catus, UniProt E3UMS2). Kind of assay: Example 8: agonist screening of transmembrane compounds on T1R1/T1R3 in HEK293 cells. The settings on record: for T1R1/T1R3 agonist: transmembrane compound tested at 0.01, 0.1 and 1 mM, HEK293 cells expressing T1R1/T1R3, calcium dye and/or luminescent reporter; for agonist profile assessment: transmembrane compound alone, in words. The format is cell-based, cat. On the procedure:
HEK293 cells that stably express T1R3 and inducibly express T1R1 were exposed to a transmembrane compound. Activation of the T1R1/T1R3 receptor was detected by a change in intracellular calcium levels using a calcium sensitive fluorescent dye and/or a luminescent reporter system. […] A FLIPR® Tetra or a FlexStation® 3 was used for data capture.
Each transmembrane compound was tested at concentrations of 0.01 mM, 0.1 mM, and 1 mM. […] To generate the dose response curves, the transmembrane compound was tested at concentrations of between 0.0001 mM and 1.0 mM in the presence of GMP and Ala.

Assay [2] addresses T1, T1R1/T1R3 receptor. Put plainly: Example 8: PAM screening of transmembrane compounds with GMP and Ala on T1R1/T1R3 in HEK293 cells. The format is cell-based, cat. The settings on record: for T1R1/T1R3 PAM: compound at 0.01, 0.1, 1 mM in combination with GMP+Ala mixtures (T1-T4), PAM if response to the combination is greater than the sum of the responses to compound alone and to GMP+Ala alone; for PAM profile assessment: in the presence of GMP and Alanine, in words. The text has this: HEK293 cells that stably express T1R3 and inducibly express T1R1 were exposed to transmembrane compound alone or in combination with Ala and GMP to activate the umami receptor. Activation of the T1R1/T1R3 receptor was detected by a change in intracellular calcium levels using a calcium sensitive fluorescent dye and/or a luminescent reporter system. […] A FLIPR® Tetra or a FlexStation® 3 was used for data capture.
Dose response curves were generated for each transmembrane compound at concentrations of 0 (buffer only), 0.01, 0.1 and 1 mM, wherein each of the three concentrations of transmembrane compound was tested in combination with 0.03 mM GMP+100 mM Ala (T1); 0.6 mM GMP+10 mM Ala (T2); 0.1 mM GMP+60 mM Ala (T3) and 0.3 mM GMP+60 mM Ala (T4). The T4 mixture was also tested in a 2-fold dilution series (the T4(X) Concentration). In these experiments, the first test concentration was 2× (2 times) the T4 concentration. The subsequent test concentrations were 2-fold dilutions from that (1×, 0.5× etc.). This dilution series was tested with or without the addition of the test compound at a constant 0.3 mM concentration.
Activation of the umami receptor was also determined in the presence of 1 mM GMP+100 mM Ala to generate a “maximum” umami receptor activation level.

Assay [3] deals with T1, T1R1/T1R3 receptor. Put plainly: cell-based. The format is cell-based. The source says:
(§1) HEK293 cells that stably express T1R3 and inducibly express T1R1 were exposed to transmembrane compounds alone or in combination with one or more amino acids and/or one or more nucleotides to activate the umami receptor. Activation of the T1R1/T1R3 receptor was detected by a change in intracellular calcium levels using a calcium sensitive fluorescent dye. Cells that express T1R3 but not T1R1 were used as a control. A FLIPR® Tetra or a FlexStation® 3 was used for data capture.
(§2) In each experiment, serial dilutions of up to 10 mM of the transmembrane compound were added to the T1R1/T1R3-expressing cells.

Assay [4] addresses T1, T1R1/T1R3 receptor. Put plainly: Example 6: activation of T1R1/T1R3 by transmembrane compounds, conducted as in Example 5. The settings on record: T1R1/T1R3 EC50, +0.2 mM IMP. The format is cell-based.
From the text: as §1, §2

The target of assay [5] is T1, T1R1/T1R3 receptor. The assay is classed as cell-based. The settings on record: threshold in the presence of 0.2 mM IMP; CNBD = Could not be determined.
From the text: as §1, §2

Values joined by “and” are separate entries in the source; they are usually repeats but may differ in a detail not shown here. Identical values can stand only once.

For the compound `O=C(CN1C(=O)C(=O)N(CCc2cccs2)C1=O)c1ccccc1` [Formula 6, 1-(2-oxo-2-phenylethyl)-3-(2-(thiophen-2-yl)ethyl)imidazolidine-2,4,5-trione], the T1R1/T1R3 agonist entry in assay [1] is given as “No”. The “T1R1/T1R3 PAM” value in assay [2] is “No”.
For `O=C(CN1C(=O)C(=O)N(CCc2cccs2)C1=O)c1ccc2c(c1)OCO2` [Formula 7, 1-(2-(benzo[d][1,3]dioxol-5-yl)-2-oxoethyl)-3-(2-(thiophen-2-yl)ethyl)imidazolidine-2,4,5-trione], in assay [1], the T1R1/T1R3 agonist entry is recorded as “No”. Also, in assay [2], the “T1R1/T1R3 PAM” value is recorded as “No”.
For the compound `O=C(CN1C(=O)C(=O)N(Cc2ccccc2)C1=O)c1ccc2c(c1)OCCCO2` [Formula 8, 1-benzyl-3-(2-(3,4-dihydro-2H-benzo[b][1,4]dioxepin-7-yl)-2-oxoethyl)imidazolidine-2,4,5-trione], in assay [1], the T1R1/T1R3 agonist entry is recorded as “No”. In assay [2], the “T1R1/T1R3 PAM” value is reported as “Weak PAM” and the PAM profile assessment entry is on record as “PAM activity”.
Consider `N#Cc1cccc(NC(=O)CN2C(=O)C(=O)N(Cc3ccccc3)C2=O)c1` [Formula 9, 2-(3-benzyl-2,4,5-trioxoimidazolidin-1-yl)-N-(3-cyanophenyl)acetamide], for which, in assay [1], the T1R1/T1R3 agonist entry is recorded as “No”. The “T1R1/T1R3 PAM” value in assay [2] was “No”.
On to `COc1ccccc1C(=O)CN1C(=O)C(=O)N(Cc2cccs2)C1=O` [Formula 10, 1-(2-(2-methoxyphenyl)-2-oxoethyl)-3-(thiophen-2-ylmethyl)imidazolidine-2,4,5-trione], for which the T1R1/T1R3 agonist result in assay [1] is listed as “No”. For the same compound, in assay [2], the “T1R1/T1R3 PAM” value is recorded as “No”.
Take `O=C(CN1C(=O)C(=O)N(CCc2cccs2)C1=O)c1cccc2ccccc12` [Formula 11, 1-(2-(naphthalen-1-yl)-2-oxoethyl)-3-(2-(thiophen-2-yl)ethyl)imidazolidine-2,4,5-trione]: the T1R1/T1R3 agonist entry in assay [1] was “No”. Also, the “T1R1/T1R3 PAM” value in assay [2] was “No”.
`O=C(CN1C(=O)C(=O)N(Cc2ccccc2)C1=O)c1ccc(Cl)s1` [Formula 12, 1-benzyl-3-(2-(5-chlorothiophen-2-yl)-2-oxoethyl)imidazolidine-2,4,5-trione]: the T1R1/T1R3 agonist entry in assay [1] is “No”. In addition, the “T1R1/T1R3 PAM” value in assay [2] was “Weak PAM”.
In the case of `O=C1C(=O)N(Cc2ccccc2)C(=S)N1Cc1ccccc1` [Formula 13, 1,3-dibenzyl-2-thioxoimidazolidine-4,5-dione], in assay [1], the T1R1/T1R3 agonist result was “No”. Also, the “T1R1/T1R3 PAM” value in assay [2] is “No”.
For the compound `CCCC(CCC)NC(=O)c1ccc2c(c1)OCO2` [Formula 14, N-(heptan-4-yl)benzo[d][1,3]dioxole-5-carboxamide], in assay [1], the T1R1/T1R3 agonist result is listed as “Yes”. Also, the “T1R1/T1R3 PAM” value in assay [2] is on record as “Yes”.
With `COC(=O)[C@H](Cc1ccccc1)NCc1ccccc1.Cl` [Formula 15, N-Benzyl-L-phenylalanine methyl ester hydrochloride], the T1R1/T1R3 agonist result in assay [1] is “Yes”. The “T1R1/T1R3 PAM” value in assay [2] was “Yes”.
Turning to `COC(=O)[C@@H](Cc1ccccc1)NCc1ccccc1.Cl` [Formula 16, N-Benzyl-D-Phenylalanine methyl ester hydrochloride], in assay [1], the T1R1/T1R3 agonist entry is on record as “Yes”. Besides, the “T1R1/T1R3 PAM” value in assay [2] was “Yes”.
`COC(=O)[C@H](CC(C)C)NCc1ccccc1.Cl` [Formula 18, Benzyl-L-leucine methyl ester hydrochloride]: in assay [1], the T1R1/T1R3 agonist result is reported as “Yes”. The “T1R1/T1R3 PAM” value in assay [2] is “Yes”.
For the compound `COC(=O)C(NCc1ccccc1)c1ccccc1` (centres unmarked) [Formula 19, Methyl-2-benzylamino-2-phenylacetate], the T1R1/T1R3 agonist entry in assay [1] was “Yes”. Further, the “T1R1/T1R3 PAM” value in assay [2] was “Yes”.
As to `Cl.N[C@@H](Cc1ccccc1)C(=O)OCc1ccccc1` [Formula 20, L-Phenylalanine benzyl ester hydrochloride], the T1R1/T1R3 agonist entry in assay [1] is given as “Yes”. Further, the “T1R1/T1R3 PAM” value in assay [2] was “Yes”.
Take `N[C@@H](Cc1ccc(O)cc1)C(=O)OCc1ccccc1` [Formula 21, L-Tyrosine benzyl ester]: the T1R1/T1R3 agonist result in assay [1] was “No”. For the same compound, the “T1R1/T1R3 PAM” value in assay [2] is recorded as “No”.
`O=C(O)[C@H](Cc1ccc(O)cc1)NCc1ccccc1` [Formula 22, N-Benzyl-L-Tyrosine]: the T1R1/T1R3 agonist result in assay [1] is recorded as “No”. Besides, in assay [2], the “T1R1/T1R3 PAM” value is on record as “No”.
Turning to `Cc1ccc(CNC(Cc2ccccc2)C(=O)O)cc1` (centres unmarked) [Formula 23, 2-((4-methylbenzyl)amino)-3-phenylpropanoic acid], the T1R1/T1R3 agonist entry in assay [1] is recorded as “No”. The “T1R1/T1R3 PAM” value in assay [2] is given as “No”.
Turning to `O=C1CC(=O)N(Cc2ccccc2)C(=O)N1Cc1ccccc1` [Formula 24, 1,3-dibenzylpyrimidine-2,4,6(1H,3H,5H)-trione], in assay [1], the T1R1/T1R3 agonist entry was “Yes”. Further, in assay [2], the “T1R1/T1R3 PAM” value is “No”.
On to `Cl.N[C@@H](Cc1ccccc1)C(=O)OCc1ccccc1` [L-Phenylalanine benzyl ester hydrochloride], for which the agonist profile assessment result in assay [1] was “agonist”. Moreover, the PAM profile assessment result in assay [2] was “PAM activity”.
As to `COC(=O)C(NCc1ccccc1)c1ccccc1` (centres unmarked) [Methyl-2-benzylamino-2-phenylacetate], in assay [1], the agonist profile assessment result is “agonist”. For the same compound, the PAM profile assessment entry in assay [2] is “PAM activity”.
With `CCCC(CCC)NC(=O)c1ccc2c(c1)OCO2` [N-(heptan-4-yl)benzo[d][1,3]dioxole-5-carboxamide], in assay [3] (in the presence of 0.2 mM IMP), the “Max resp ΔF/F +IMP (0.2 mM)” value is 1.4725 and 1.393 and 1.473. The “Max resp % of Ala +IMP (0.2 mM)” value in assay [3] (in the presence of 0.2 mM IMP, relative to Ala) was 165.8% and 119.6%. In assay [3] (in the presence of 20 mM alanine), the “Max resp ΔF/F +Alanine (20 mM)” value was 1.7725 and 1.2. The “Max resp % of IMP +Alanine (20 mM)” value in assay [3] (in the presence of 20 mM alanine, relative to IMP) is 118.2% and 142.7%. Further, the agonist profile assessment result in assay [1] was “agonist”. Further, the PAM profile assessment result in assay [2] was “PAM activity”.
As to `COC(=O)[C@@H](Cc1ccccc1)NCc1ccccc1.Cl` [N-Benzyl-D-Phenylalanine methyl ester hydrochloride], the agonist profile assessment result in assay [1] is “agonist”. Also, the PAM profile assessment result in assay [2] was “PAM activity”.
In general, EC50 refers to the concentration giving half of the maximal effect. In the case of `COC(=O)[C@H](Cc1ccccc1)NCc1ccccc1` [N-Benzyl-L-phenylalanine methyl ester], the EC50 in assay [4] stood at 20 ± 1 µM. Besides, the “Thres +IMP (0.2 mM)” value in assay [5] is 0.003 mM. Besides, the agonist profile assessment result in assay [1] was “agonist”. The PAM profile assessment result in assay [2] is on record as “PAM activity”.
